Measured values taken from BindingDB's records for doi:10.1021/jm5004733 (University of Texas Medical Branch, 2014).

Target: Transcription factor Jun (Homo sapiens, UniProt P05412)
Test: Inhibition of AP-1-mediated transcriptional activation in human Jurkat cells by luciferase reporter gene assay

Sequence of Transcription factor Jun (P05412 whole entry): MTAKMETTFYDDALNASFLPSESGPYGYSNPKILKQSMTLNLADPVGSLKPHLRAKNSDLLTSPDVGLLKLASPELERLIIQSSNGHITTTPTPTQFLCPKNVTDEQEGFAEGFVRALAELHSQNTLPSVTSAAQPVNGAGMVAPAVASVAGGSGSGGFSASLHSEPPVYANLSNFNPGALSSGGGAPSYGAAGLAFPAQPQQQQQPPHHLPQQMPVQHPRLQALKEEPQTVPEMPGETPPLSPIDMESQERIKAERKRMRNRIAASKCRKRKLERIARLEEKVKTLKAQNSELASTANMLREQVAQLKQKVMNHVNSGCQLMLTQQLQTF

| IC50 | SMILES |
| --- | --- |
| > 30 µM | O=C(Nc1cc(C(F)(F)F)cc(C(F)(F)F)c1)c1ccc(Cl)cc1C(F)(F)F [N-(3,5-Bis-trifluoromethyl-phenyl)-4-chloro-2-trifluoromethyl-benzamide] |
| > 10 µM | N#Cc1ncc(C(=O)Nc2cc(C(F)(F)F)cc(C(F)(F)F)c2)c(C(F)(F)F)n1 [2-Cyano-4-trifluoromethyl-pyrimidine-5-carboxylic acid (3,5-bis-trifluoromethyl-phenyl)-amide] |
| > 10 µM | O=C(Nc1cc(C(F)(F)F)cc(C(F)(F)F)c1)c1cnc(C(F)(F)F)nc1C(F)(F)F [2,4-Bis-trifluoromethyl-pyrimidine-5-carboxylic acid (3,5-bis-trifluoromethyl-phenyl)-amide] |
